Laboratory results taken from paper PMC8500670, “A selective WDR5 degrader inhibits acute myeloid leukemia in patient-derived mouse models” (Science translational medicine, 2021).
Read-outs that look alike come from different tables or passages of the source.

What was measured:
Assay in all cases: biochemical
Design in all cases: protein methyltransferase selectivity panel, enzyme activity relative to DMSO controls, single concentration in duplicate
PRMT1 = PRMT1 (Homo sapiens, UniProt Q99873); settings: Substrate:=Histone H4
PRMT1, sequence (Q99873 whole entry): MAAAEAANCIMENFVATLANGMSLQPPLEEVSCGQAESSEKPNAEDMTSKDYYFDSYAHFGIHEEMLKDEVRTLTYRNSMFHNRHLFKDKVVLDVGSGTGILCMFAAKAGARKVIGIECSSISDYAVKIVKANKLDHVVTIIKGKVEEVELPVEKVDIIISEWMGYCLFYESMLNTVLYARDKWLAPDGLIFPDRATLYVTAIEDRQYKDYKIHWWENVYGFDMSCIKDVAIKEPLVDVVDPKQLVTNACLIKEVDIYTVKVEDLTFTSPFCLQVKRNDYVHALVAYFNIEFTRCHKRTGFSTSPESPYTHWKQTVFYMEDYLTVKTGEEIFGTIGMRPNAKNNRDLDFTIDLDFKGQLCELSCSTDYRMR
Experimental: (§1) We next assessed selectivity of MS67 against 22 protein methyltransferases (table S2) and a broad panel of common drug targets including 45 kinases (table S3) and 44 G protein–coupled receptors (GPCR), ion channels, and transporters (table S4). […] We subsequently determined that MS67 had moderate binding affinity (Ki = 1.0 ± 0.8 μM) to Sigma 2 receptor (fig. S10).

SETD2 = SETD2 (Homo sapiens, UniProt Q9BYW2); settings: Substrate:=Nucleosomes
SETD2, sequence (Q9BYW2 whole entry): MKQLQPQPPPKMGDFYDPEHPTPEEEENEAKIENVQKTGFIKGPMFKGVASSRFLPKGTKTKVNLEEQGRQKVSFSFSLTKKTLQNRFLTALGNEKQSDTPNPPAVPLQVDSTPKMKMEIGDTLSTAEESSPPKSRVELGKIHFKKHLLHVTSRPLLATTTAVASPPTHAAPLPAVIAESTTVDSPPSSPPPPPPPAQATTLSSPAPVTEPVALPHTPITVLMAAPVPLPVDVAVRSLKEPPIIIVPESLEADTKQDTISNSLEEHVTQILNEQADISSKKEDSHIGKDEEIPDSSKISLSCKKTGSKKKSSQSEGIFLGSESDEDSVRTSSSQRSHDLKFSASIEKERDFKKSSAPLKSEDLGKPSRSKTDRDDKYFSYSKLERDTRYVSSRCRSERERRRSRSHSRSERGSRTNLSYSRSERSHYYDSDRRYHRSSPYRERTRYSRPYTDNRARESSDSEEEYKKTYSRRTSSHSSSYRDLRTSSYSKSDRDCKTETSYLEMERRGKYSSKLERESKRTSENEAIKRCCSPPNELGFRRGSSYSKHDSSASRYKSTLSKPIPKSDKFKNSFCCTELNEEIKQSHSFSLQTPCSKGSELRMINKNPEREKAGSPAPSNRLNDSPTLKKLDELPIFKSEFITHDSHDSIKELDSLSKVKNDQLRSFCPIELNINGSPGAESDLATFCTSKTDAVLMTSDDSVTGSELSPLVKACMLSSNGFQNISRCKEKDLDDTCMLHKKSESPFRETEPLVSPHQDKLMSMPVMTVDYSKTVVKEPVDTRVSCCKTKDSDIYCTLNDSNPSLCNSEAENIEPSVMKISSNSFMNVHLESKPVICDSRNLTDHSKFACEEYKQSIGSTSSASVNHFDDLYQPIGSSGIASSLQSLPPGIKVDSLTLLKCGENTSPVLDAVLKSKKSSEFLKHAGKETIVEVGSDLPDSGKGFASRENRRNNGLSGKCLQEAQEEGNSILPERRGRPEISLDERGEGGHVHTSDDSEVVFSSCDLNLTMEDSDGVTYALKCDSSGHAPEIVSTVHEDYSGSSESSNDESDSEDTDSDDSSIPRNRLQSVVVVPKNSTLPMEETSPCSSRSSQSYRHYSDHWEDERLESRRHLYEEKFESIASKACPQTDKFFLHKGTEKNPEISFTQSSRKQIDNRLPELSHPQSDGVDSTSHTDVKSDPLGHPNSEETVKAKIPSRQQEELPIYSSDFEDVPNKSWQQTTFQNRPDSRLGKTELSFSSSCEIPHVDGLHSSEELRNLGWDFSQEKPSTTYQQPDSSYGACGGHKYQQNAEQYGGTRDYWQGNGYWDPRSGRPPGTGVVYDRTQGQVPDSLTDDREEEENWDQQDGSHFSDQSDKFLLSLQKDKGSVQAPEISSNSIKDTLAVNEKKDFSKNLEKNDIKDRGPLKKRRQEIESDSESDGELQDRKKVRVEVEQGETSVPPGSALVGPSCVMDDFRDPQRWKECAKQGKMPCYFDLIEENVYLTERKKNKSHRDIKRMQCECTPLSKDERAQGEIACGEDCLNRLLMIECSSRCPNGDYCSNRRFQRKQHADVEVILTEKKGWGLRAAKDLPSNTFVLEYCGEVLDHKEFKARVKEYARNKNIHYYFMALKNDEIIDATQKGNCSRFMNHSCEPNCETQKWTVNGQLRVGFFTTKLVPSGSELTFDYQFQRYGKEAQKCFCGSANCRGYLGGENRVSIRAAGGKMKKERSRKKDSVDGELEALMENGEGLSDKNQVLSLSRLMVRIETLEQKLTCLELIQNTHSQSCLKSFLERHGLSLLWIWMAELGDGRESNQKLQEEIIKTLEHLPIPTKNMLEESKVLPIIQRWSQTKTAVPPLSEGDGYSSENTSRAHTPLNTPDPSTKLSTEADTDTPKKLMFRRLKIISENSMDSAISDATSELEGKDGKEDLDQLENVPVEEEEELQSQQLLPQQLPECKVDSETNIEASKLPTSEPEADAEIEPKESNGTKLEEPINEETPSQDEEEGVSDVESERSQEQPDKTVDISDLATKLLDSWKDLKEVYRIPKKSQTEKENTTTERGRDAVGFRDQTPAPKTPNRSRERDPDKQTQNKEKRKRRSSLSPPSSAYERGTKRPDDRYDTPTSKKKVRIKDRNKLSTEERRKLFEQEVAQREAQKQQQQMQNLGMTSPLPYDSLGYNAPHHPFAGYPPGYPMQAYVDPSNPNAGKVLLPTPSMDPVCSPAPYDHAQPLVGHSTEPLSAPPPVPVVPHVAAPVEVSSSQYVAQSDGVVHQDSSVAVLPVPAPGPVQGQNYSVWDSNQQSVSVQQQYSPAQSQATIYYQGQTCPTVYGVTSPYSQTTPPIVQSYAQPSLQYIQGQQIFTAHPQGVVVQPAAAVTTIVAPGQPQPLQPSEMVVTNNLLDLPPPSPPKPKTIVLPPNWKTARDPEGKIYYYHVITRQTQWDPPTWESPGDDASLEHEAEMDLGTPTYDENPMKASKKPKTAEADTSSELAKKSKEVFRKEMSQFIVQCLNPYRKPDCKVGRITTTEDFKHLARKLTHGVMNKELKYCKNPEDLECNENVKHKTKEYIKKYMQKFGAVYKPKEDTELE
Experimental: as §1

SET8 = target: T1, SET8 (Homo sapiens, UniProt Q9NQR1); settings: Substrate:=Nucleosomes
T1 construct: gene KMT5A
T1 sequence (Q9NQR1 1-393): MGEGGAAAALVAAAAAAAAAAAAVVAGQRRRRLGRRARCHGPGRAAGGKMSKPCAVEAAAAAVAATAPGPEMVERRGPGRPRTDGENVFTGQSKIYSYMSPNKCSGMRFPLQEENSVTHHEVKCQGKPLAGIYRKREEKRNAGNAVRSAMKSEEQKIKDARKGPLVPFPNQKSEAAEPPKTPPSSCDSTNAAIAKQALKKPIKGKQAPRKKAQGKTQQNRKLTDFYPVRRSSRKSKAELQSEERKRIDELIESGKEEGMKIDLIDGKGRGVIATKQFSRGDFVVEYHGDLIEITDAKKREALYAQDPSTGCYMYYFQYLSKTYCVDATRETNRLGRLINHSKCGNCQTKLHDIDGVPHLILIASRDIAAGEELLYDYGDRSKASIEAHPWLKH
Experimental: as §1

PRMT4 = target: T2, PRMT4 (Homo sapiens, UniProt Q86X55); settings: Substrate:=Histone H3
T2 construct: gene CARM1
T2 sequence (Q86X55 1-608): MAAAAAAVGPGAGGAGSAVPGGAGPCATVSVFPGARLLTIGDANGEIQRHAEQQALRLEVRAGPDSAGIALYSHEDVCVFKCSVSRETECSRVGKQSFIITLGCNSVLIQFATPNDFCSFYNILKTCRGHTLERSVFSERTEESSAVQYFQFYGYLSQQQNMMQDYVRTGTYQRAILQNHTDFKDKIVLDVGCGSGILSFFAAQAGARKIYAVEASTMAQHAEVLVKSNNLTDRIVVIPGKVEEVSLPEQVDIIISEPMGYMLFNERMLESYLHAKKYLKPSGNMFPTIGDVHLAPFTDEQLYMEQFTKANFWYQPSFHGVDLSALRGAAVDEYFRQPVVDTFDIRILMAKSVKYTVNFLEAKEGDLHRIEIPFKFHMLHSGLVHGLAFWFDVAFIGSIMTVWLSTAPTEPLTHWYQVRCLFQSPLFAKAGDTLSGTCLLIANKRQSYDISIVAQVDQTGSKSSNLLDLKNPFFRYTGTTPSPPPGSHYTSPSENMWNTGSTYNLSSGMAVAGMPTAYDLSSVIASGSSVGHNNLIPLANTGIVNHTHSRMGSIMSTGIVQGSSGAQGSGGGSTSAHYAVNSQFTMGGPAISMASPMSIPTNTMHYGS
Experimental: as §1

[1] = read-out: Enzyme % Activity (relative to DMSO controls) / MS67 / 10 / Data 1:
[2] = read-out: Enzyme % Activity (relative to DMSO controls) / MS67 / 10 / Data 2:

Cc1ncsc1-c1ccc([C@H](C)NC(=O)[C@@H]2C[C@@H](O)CN2C(=O)[C@@H](NC(=O)CNC(=O)c2ccc(F)c(-c3ccc(N4C[C@@H](C)N(C)[C@@H](C)C4)c(NC(=O)c4c[nH]c(=O)cc4C(F)(F)F)c3)c2)C(C)(C)C)cc1 [MS67]
remaining activity at 10 µM (PRMT1; [1]): 98.9%
remaining activity at 10 µM (PRMT1; [2]): 96%
remaining activity at 10 µM (SETD2; [1]): 112%
remaining activity at 10 µM (SETD2; [2]): 110%
remaining activity at 10 µM (SET8; [1]): 112%
remaining activity at 10 µM (SET8; [2]): 113%
remaining activity at 10 µM (PRMT4; [1]): 107%
remaining activity at 10 µM (PRMT4; [2]): 98.9%
